Measurements published in patent US6384220B2, “Para-aryl or heterocyclic substituted phenyl glucokinase activators” (Hoffmann-La Roche Inc., priority 2000, dated 2002).

melting point | SMILES
244 to 246 °C | CNC(=O)NC(=O)C(CC1CCCC1)c1ccc(S(=O)(=O)C2CCCCC2)cc1 (centres unmarked) [Example 40, 1-[2-(4-Cyclohexanesulfonyl-phenyl)-3-cyclopentyl-propionyl]-3-methyl-urea]
195 to 197 °C | CNC(=O)NC(=O)C(CC1CCCC1)c1ccc(-c2ccccc2)cc1 (centres unmarked) [Example 34, 1-(2-Biphenyl-4-yl-3-cyclopentyl-propionyl)-3-methyl urea]
271 to 272 °C (dec.) | O=C(O)c1ccc(NC(=O)C(CC2CCCC2)c2ccc(-c3ccccc3)cc2)nc1 (centres unmarked) [Example 23, 6-(2-Biphenyl-4-yl-3-cyclopentyl-propionylamino)-nicotinic acid]
67 to 70 °C | O=C(Nc1ccc(CO)cn1)C(CC1CCCC1)c1ccc(-c2ccccc2)cc1 (centres unmarked) [Example 24, 2-Biphenyl-4-yl-3-cyclopentyl-N-(5-hydroxymethyl-pyridin-2-yl)-propionamide]
165 to 167 °C | O=C(Nc1ccccn1)C(CC1CCCC1)c1ccc(-c2ccncc2)cc1 (centres unmarked) [Example 29, 3-Cyclopentyl-N-pyridin-2-yl-2-(4-pyridin-4-yl-phenyl)-propionamide]
63 to 65 °C | COC(=O)c1ccc(NC(=O)C(CC2CCCC2)c2ccc(-c3ccccc3)cc2)nc1 (centres unmarked) [Example 22, 6-(2-Biphenyl-4-yl-3-cyclopentyl-propionylamino)-nicotinic acid methyl ester]
158 to 160 °C | CNC(=O)NC(=O)C(CC1CCCC1)c1ccc(-c2cccnc2)cc1 (centres unmarked) [Example 36, 1-[3-Cyclopentyl-2-(4-pyridin-3-yl-phenyl)-propionyl]-3-methyl-urea]
184 to 185 °C | NC(=O)NC(=O)C(CC1CCCC1)c1ccc(-c2ccccc2)cc1 (centres unmarked) [Example 33, (2-Biphenyl-4-yl-3-cyclopentyl-propionyl) urea]
73 to 77 °C | O=C(Nc1ccccn1)C(CC1CCCC1)c1ccc(-c2cccc3ccccc23)cc1 (centres unmarked) [Example 25, 3-Cyclopentyl-2-(4-naphthalen-1-yl-phenyl)-N-pyridin-2-yl-propionamide]
85 to 88 °C | CNC(=O)NC(=O)C(CC1CCCC1)c1ccc(-c2cccc3ccccc23)cc1 (centres unmarked) [Example 35, 1-[3-Cyclopentyl-2-(4-naphthalen-1-yl-phenyl)-propionyl]-3-methyl urea]
139 to 140 °C | O=C(Nc1ccccn1)C(CC1CCCC1)c1ccc(-c2cccnc2)cc1 (centres unmarked) [Example 28, 3-Cyclopentyl-N-pyridin-2-yl-2-(4-pyridin-3-yl-phenyl)-propionamide]
155 to 158 °C | O=C(O)c1ccc(NC(=O)C(CC2CCCC2)c2ccc(-c3cccc4ccccc34)cc2)nc1 (centres unmarked) [Example 26, 6-[3-Cyclopentyl-2-(4-naphthalen-1-yl-phenyl)-propionylamino]-nicotinic acid]
91 to 95 °C | CNC(=O)NC(=O)C(CC1CCCC1)c1ccc(-c2ccc3[nH]ccc3c2)cc1 (centres unmarked) [Example 37, 1-{3-Cyclopentyl-2-[4-(1H-indol-5-yl)-phenyl]-propionyl}-3-methyl-urea]
206 to 207 °C | CNC(=O)NC(=O)C(CC1CCCC1)c1ccc(N2CCOCC2)cc1 (centres unmarked) [Example 39, 1-[3-Cyclopentyl-2-(4-morpholin-4-yl-phenyl)-propionyl]-3-methyl-urea]
57 to 59 °C | O=C(Nc1ccccn1)C(CC1CCCC1)c1ccc(-c2ccccc2)cc1 (centres unmarked) [Example 21, 2-Biphenyl-4-yl-3-cyclopentyl-N-pyridin-2-yl-propionamide]
72 to 75 °C | O=C(Nc1ccc(CO)cn1)C(CC1CCCC1)c1ccc(-c2cccc3ccccc23)cc1 (centres unmarked) [Example 27, 3-Cyclopentyl-N-(5-hydroxymethyl-pyridin-2-yl)-2-(4-naphthalen-1-yl-phenyl)-propionamide]

More lines, now with the values behind:

SMILES | melting point
O=C(Nc1nccs1)C(CC1CCCC1)c1ccc(S(=O)(=O)c2ncc[nH]2)cc1 (centres unmarked) [Example 20, 3-Cyclopentyl-2-[4-(1H-imidazole-2-sulfonyl)-phenyl]-N-thiazol-2-yl-propionamide] | 249 to 251 °C
O=C(Nc1nccs1)C(CC1CCCC1)c1ccc(S(=O)(=O)C2CCCC2)cc1 (centres unmarked) [Example 19, 2-(4-Cyclopentanesulfonyl-phenyl)-3-cyclopentyl-N-thiazol-2-yl-propionamide] | 180 to 182 °C
O=C(Nc1nc(CO)cs1)C(CC1CCCC1)c1ccc(Oc2ccccc2)cc1 (centres unmarked) [Example 13, 3-Cyclopentyl-N-(4-hydroxymethyl-thiazol-2-yl)-2-(4-phenoxy-phenyl)-propionamide] | 83.7 to 87 °C
O=C(Nc1nc(CO)cs1)C(CC1CCCC1)c1ccc(-c2ccccc2)cc1 (centres unmarked) [Example 3, 2-Biphenyl-4-yl-3-cyclopentyl-N-(4-hydroxymethyl-thiazol-2-yl)-propionamide] | 102 to 104 °C
O=C(Nc1nccs1)C(CC1CCCC1)c1ccc(-c2ccncc2)cc1 (centres unmarked) [Example 9, 3-Cyclopentyl-2-(4-pyridin-4-yl-phenyl)-N-thiazol-2-yl-propionamide] | 213 to 215 °C
O=C(Nc1nccs1)C(CC1CCCC1)c1ccc(-c2cccc3ccccc23)cc1 (centres unmarked) [Example 5, 3-Cyclopentyl-2-(4-naphthalen-1-yl-phenyl)-N-thiazol-2-yl-propionamide] | 202 to 204 °C
O=C(Nc1nccs1)C(CC1CCCC1)c1ccc(-c2ccc3[nH]ccc3c2)cc1 (centres unmarked) [Example 10, 3-Cyclopentyl-2-[4-(1H-indol-5-yl)-phenyl]-N-thiazol-2-yl-propionamide] | 112 to 115 °C
O=C(Nc1nccs1)C(CC1CCCC1)c1ccc(Oc2ccccc2)cc1 (centres unmarked) [Example 12, 3-Cyclopentyl-2-(4-phenoxy-phenyl)-N-thiazol-2-yl-propionamide] | 154.9 to 155.1 °C
O=C(Nc1nccs1)C(CC1CCCC1)c1ccc(-c2cccs2)cc1 (centres unmarked) [Example 7, 3-Cyclopentyl-N-thiazol-2-yl-2-(4-thiophen-2-yl-phenyl)-propionamide] | 194 °C (dec.)
O=C(Nc1nccs1)[C@H](CC1CCCC1)c1ccc(-c2ccccc2)cc1 [Example 4, (2R)-2-Biphenyl-4-yl-3-cyclopentyl-N-thiazol-2-yl-propionamide] | 132 to 134 °C
O=C(Nc1nccs1)C(CC1CCCC1)c1ccc(-c2ccccc2)cc1 (centres unmarked) [Example 1, 2-Biphenyl-4-yl-3-cyclopentyl-N-thiazol-2-yl-propionamide] | 194 to 195 °C
O=C(Nc1nc(CCO)cs1)C(CC1CCCC1)c1ccc(-c2cccc3ccccc23)cc1 (centres unmarked) [Example 6, 3-Cyclopentyl-N-[4-(2-hydroxyethyl)-thiazol-2-yl]-2-(4-naphthalen-1-yl-phenyl)-propionamide] | 84 to 87 °C
O=C(Nc1nccs1)C(CC1CCCC1)c1ccc(OCc2ccccc2)cc1 (centres unmarked) [Example 11, 2-(4-Benzyloxy-phenyl)-3-cyclopentyl-N-thiazol-2-yl-propionamide] | 48 to 50 °C
COC(=O)c1csc(NC(=O)C(CC2CCCC2)c2ccc(-c3ccccc3)cc2)n1 (centres unmarked) [Example 2, 2-(2-Biphenyl-4-yl-3-cyclopentyl-propionylamino)-thiazole-4-carboxylic acid methyl ester] | 98 to 101 °C
O=C(Nc1nccs1)C(CC1CCCC1)c1ccc(N2CCOCC2)cc1 (centres unmarked) [Example 18, 3-Cyclopentyl-2-(4-morpholin-4-yl-phenyl)-N-thiazol-2-yl-propionamide] | 244 to 246 °C
O=C(Nc1nccs1)C(CC1CCCC1)c1ccc(-c2cccnc2)cc1 (centres unmarked) [Example 8, 3-Cyclopentyl-2-(4-pyridin-3-yl-phenyl)-N-thiazol-2-yl-propionamide] | 48 to 52 °C
